The record followed here is patent US8030354B2, “Substituted biphenyl GPR40 modulators” (Amgen Inc., priority 2007, dated 2011).

In assay [1] the target is T1, GPR40 (Homo sapiens, UniProt O14842). In words: Displacement of 3H-labeled Comparative Compound 1 by unlabeled compounds. The following applies: FIG. 1. In kind it is binding. Set-up: expressed in transfected cells; host or cells: membranes of A9 cells expressing GPR40.
Assay [2] addresses T1, GPR40. In words: Inositol phosphate accumulation assay (A9_GPR40 cells). Type of assay: cell-based. Set-up: expressed in transfected cells; host or cells: CHO cells stably transfected with GPR40 and aequorin. The note with it: for agonist type in inositol phosphate accumulation assay: [3H] inositol accumulation after 1 hour, FIG. 3; for EC50: inositol phosphate assay, A9_GPR40 cells, 1 hour, read-out: IP3 EC50. An outline of the steps:
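A9 cells stably expressing GPR40 were labelled 16 h with 1 μCi/mL ^3H-inositol in inositol-free DMEM with dialysed FBS. Compounds in HBSS/10 mM LiCl with HSA were applied for 1 h at 37° C, then quenched with 20 mM formic acid. Accumulated [^3H] inositol phosphates were counted by SPA.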

For assay [3], the target named is T1, GPR40. In words: Inositol phosphate accumulation in response to compounds. Type of assay: cell-based. Also noted: expressed in transfected cells. The note with it: FIG. 3; as a function of concentration; compared with Comparative Compound 1. The source says: FIG. 3 is a graph showing inositol phosphate accumulation in response to various compounds as a function of concentration.

For assay [4], the target named is T1, GPR40. In words: Cell-based aequorin assay (CHO cells stably expressing GPR40 and aequorin). Also noted: expressed in transfected cells; host or cells: CHO cells stably transfected with GPR40 and aequorin. The following applies: for EC50: activation of human GPR40, CHO cells, 0.01% HSA; for agonist type in aequorin assay: compared with α-linolenic acid and docosahexaenoic acid, FIG. 2. An outline of the steps: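 CHO cells stably co-expressing GPR40 and aequorin, loaded with coelenterazine (1 ug/mL, 2 h, room temperature) in H/HBSS with 20 mM Hepes and 0.01% fatty acid-free HSA. Serially diluted compounds added; luminescence recorded over 20 s. EC50 from dose-response of maximum relative light units.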

Assay [5] concerns the target T1, GPR40. In words: Competition binding assay on A9 membranes expressing GPR40 with [3H] labeled Comparative Compound 1. The note with it: 5 nM radioligand, 4 hours, room temperature. Set-up: expressed in transfected cells; host or cells: membranes of A9 cells expressing GPR40. As to the method: Competition binding assays were performed on A9 membranes expressing GPR40.

For assay [6], the target named is T1, GPR40. In words: Aequorin luminescence in response to compounds. The note with it: FIG. 2; as a function of concentration; compared with fatty acid ligands. Also noted: expressed in transfected cells. In kind it is cell-based. An excerpt: FIG. 2 is a graph showing Aequorin luminescence in response to various compounds as a function of concentration.
The subject of assay [7] is fetal rat intestinal cells isolated from E19 rat embryos. Description: GLP-1 secretion into culture medium from fetal rat intestinal cells. In kind it is cell-based. The note with it: FIG. 5-7; cultured cells treated with serial dilutions of compound. How it is done:
FIG. 5 is a graph showing the concentration of GLP-1 secreted into culture medium as a function of the amount of Example compounds 14 and 69.8. The GLP-1 was secreted from fetal rat intestinal cells isolated from E19 rat embryos. The cultured cells were treated with serial dilutions of the indicated compounds, and GLP-1 secreted into the culture medium was determined.
FIG. 6 is a graph showing the concentration of GLP-1 secreted into culture medium as a function of the amount of Example compound 66.6. The GLP-1 was secreted from fetal rat intestinal cells isolated from E19 rat embryos. The cultured cells were treated with serial dilutions of the indicated compound, and GLP-1 secreted into the culture medium was determined.
FIG. 7 is a graph showing the concentration of GLP-1 secreted into culture medium as a function of the amount of Example compounds 14, 66.17, 77.3, and 83.1. The GLP-1 was secreted from fetal rat intestinal cells isolated from E19 rat embryos. The cultured cells were treated with serial dilutions of the indicated compounds, and GLP-1 secreted into the culture medium was determined.

T1 sequence (O14842 whole entry): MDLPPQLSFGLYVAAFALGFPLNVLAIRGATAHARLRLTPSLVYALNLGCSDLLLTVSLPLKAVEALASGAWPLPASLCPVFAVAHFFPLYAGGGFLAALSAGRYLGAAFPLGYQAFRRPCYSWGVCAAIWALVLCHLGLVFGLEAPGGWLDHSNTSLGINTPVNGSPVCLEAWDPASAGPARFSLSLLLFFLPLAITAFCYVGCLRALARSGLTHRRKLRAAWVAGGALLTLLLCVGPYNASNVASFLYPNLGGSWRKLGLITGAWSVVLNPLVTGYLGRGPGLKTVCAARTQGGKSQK

`CCCCOc1cc(COc2cccc([C@@H](CC(=O)O)C3CC3)c2)ccc1-c1cc(OC)ccc1F` (single isomer, unassigned) [Example 9, (3S)-3-(3-(((2-(Butyloxy)-2′-fluoro-5′-(methyloxy)-1,1′-biphenyl-4-yl)methyl)oxy)phenyl)-3-cyclopropylpropanoic acid or (3R)-3-(3-(((2-(butyloxy)-2′-fluoro-5′-(methyloxy)-1,1′-biphenyl-4-yl)methyl)oxy)phenyl)-3-cyclopropylpropanoic acid]: the “displacement of 3H-labeled Comparative Compound 1 / total binding of 3H-labeled Comparative Compound 1” value at GPR40 [1] is reported as “enhanced the total binding”. In addition, at GPR40 [2], the “agonist type in inositol phosphate accumulation assay” value is listed as “potent full agonists” and the EC50 is 100 to 1000 nM. In addition, the inositol phosphate accumulation entry on GPR40 [3] was “greater than Comparative Compound 1”. In addition, on GPR40 [4], the EC50 was in the range of 100 to 1000 nM. On GPR40 [5], the “displacement of bound [3H] labeled Comparative Compound 1” value is “did not displace” and the “effect on binding of the radioligand (Comparative Compound 1) to the receptor” value is recorded as “enhanced the binding of the radioligand”.

As for `COc1ccc(F)c(-c2ccc(COc3cccc([C@@H](CC(=O)O)C4CC4)c3)cc2C2=CCCC2(C)C)c1` (single isomer, unassigned) [Example 14, (3S)-3-Cyclopropyl-3-(3-(((2-(5,5-dimethyl-1-cyclopenten-1-yl)-2′-fluoro-5′-(methyloxy)-1,1′-biphenyl-4-yl)methyl)oxy)phenyl)propanoic acid or (3R)-3-cyclopropyl-3-(3-(((2-(5,5-dimethyl-1-cyclopenten-1-yl)-2′-fluoro-5′-(methyloxy)-1,1′-biphenyl-4-yl)methyl)oxy)phenyl)propanoic acid], at GPR40 [6], the Aequorin luminescence result was “equivalent to naturally occurring fatty acid ligands”. In addition, the “displacement of 3H-labeled Comparative Compound 1 / total binding of 3H-labeled Comparative Compound 1” value at GPR40 [1] is recorded as “enhanced the total binding”. At GPR40 [2], the “agonist type in inositol phosphate accumulation assay” value was “potent full agonists” and the EC50 fell in the range of 10 to 100 nM. The inositol phosphate accumulation entry on GPR40 [3] is on record as “greater than Comparative Compound 1”. Also, at GPR40 [4], the EC50 fell in the range of 100 to 1000 nM and the “agonist type in aequorin assay” value is on record as “potent full agonists”. Moreover, the “concentration of GLP-1 secreted into culture medium” value in assay [7] is on record as “significantly stimulated GLP-1 secretion”. Moreover, at GPR40 [5], the “displacement of bound [3H] labeled Comparative Compound 1” value is listed as “did not displace” and the “effect on binding of the radioligand (Comparative Compound 1) to the receptor” value is listed as “enhanced the binding of the radioligand”.

As for `COc1ccc(F)c(-c2ccc(COc3cccc([C@@H](CC(=O)O)C4CC4)c3)cc2C2CCCC2(C)C)c1` (single isomer, unassigned) [Example 66.4, (3S)-3-Cyclopropyl-3-(3-(((2-(2,2-dimethylcyclopentyl)-2′-fluoro-5′-(methyloxy)-1,1′-biphenyl-4-yl)methyl)oxy)phenyl)propanoic acid or (3R)-3-cyclopropyl-3-(3-(((2-(2,2-dimethylcyclopentyl)-2′-fluoro-5′-(methyloxy)-1,1′-biphenyl-4-yl)methyl)oxy)phenyl)propanoic acid], on GPR40 [6], the Aequorin luminescence entry is on record as “equivalent to naturally occurring fatty acid ligands”. For the same compound, the half-maximal effective concentration (EC50) at GPR40 [2] was under 10 nM. For the same compound, on GPR40 [4], the EC50 was in the range of 100 to 1000 nM and the “agonist type in aequorin assay” value is given as “potent full agonists”.

With `COc1ccc(F)c(-c2ccc(COc3cccc(C(CC(=O)O)C4CC4)c3F)cc2C2CCCC2(C)C)c1` (single isomer, unassigned) [Example 83.1], the values for the EC50 at GPR40 [2] and on GPR40 [4] were under 10 nM and 10 to 100 nM, respectively. Moreover, the “concentration of GLP-1 secreted into culture medium” value in assay [7] is “significantly stimulated GLP-1 secretion”.
